According to US20160318933A1, “FUSED PYRAZOLE DERIVATIVE” (SUMITOMO DAINIPPON PHARMA CO., LTD., priority 2013, published 2016):
pEC50: −log10 of the molar value. Where a name gives a salt, the structure may show the parent alone.

Target: T1, human brain-derived dopamine D4 receptor (Homo sapiens, UniProt P21917)
T1 construct: expressed in transfected cells; host or cells: CHO (CHO-K1) or HEK293 cells
T1 sequence (P21917 1-419): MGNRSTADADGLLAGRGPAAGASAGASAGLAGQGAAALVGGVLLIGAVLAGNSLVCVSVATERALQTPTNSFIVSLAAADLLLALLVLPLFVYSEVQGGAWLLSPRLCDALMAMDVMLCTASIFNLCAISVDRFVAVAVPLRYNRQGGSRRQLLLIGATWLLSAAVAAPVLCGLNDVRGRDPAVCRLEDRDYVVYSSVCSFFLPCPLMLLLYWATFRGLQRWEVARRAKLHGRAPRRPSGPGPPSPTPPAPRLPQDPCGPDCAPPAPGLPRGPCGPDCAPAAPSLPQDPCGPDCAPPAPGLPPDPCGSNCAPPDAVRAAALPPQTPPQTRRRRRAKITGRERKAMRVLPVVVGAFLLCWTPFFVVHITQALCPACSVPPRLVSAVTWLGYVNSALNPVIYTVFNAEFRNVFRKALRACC
Experiment: Agonistic activity in G protein dependent pathway of dopamine D4 receptor (aequorin intracellular calcium luminescence, FDSS)
Type: cell-based
Conditions: for pEC50: concentration required to achieve a 50% response of Emax, CHO-K1 or HEK293 cells transfected with D4 receptor; for Emax: read-out: Maximal activity on D4 receptor (%)
Source text: The G protein dependent pathway is a pathway for transmitting signals in cells via a second messenger by stimulating a G protein through the binding of guanosine triphosphate (GTP) to the G protein. When GPCRs are activated by the binding of a ligand, a G protein binds to the GPCRs, and thereby GTP binds to a Gα subunit that is one of G protein subunits and a Gγβ subunit is dissociated. The activated Gα subunit regulates intracellular cAMP levels by the activation or inhibition of an adenylate cyclase, and regulates intracellular calcium levels by the activation of phospholipase C to transmit signals in cells.
The agonistic activities of the present compounds in the G protein dependent pathway were evaluated on the basis of intracellular calcium levels as follows. CHO-K1 or HEK293 cell lines transfected with D4 receptor genes were seeded in a 384-well plate, and incubated in a CO2 incubator at 37° C. for 24 hours, and then a solution of the present compound in DMSO was added into cells preloaded with coelenterazine to measure the change in luminescent signals with a FDSS (Hamamatsu Photonics K.K.). […] The agonistic activity of the present compound was calculated according to the measured luminescent signals, as the maximal activity (Emax) of the present compound. EC50 value was calculated as the concentration of the present compound required to achieve a 50% response of Emax.

Compound | pEC50 | Emax [%]
FC(F)(F)c1c(-c2ccccn2)nn2c1CN(Cc1ccccc1)CC2 [Example 175] | 7.04 | 50
Nc1ncc(CN2CCn3nc(-c4ncccc4F)cc3C2)cn1 [Example 151] | 6.99 | 69
Cc1cccnc1-c1cc2n(n1)CCN(Cc1ccc3c(c1)N(C)C(=O)CC3)C2 [Example 70] | 7.07 | 45
Fc1c(-c2ccccn2)nn2c1CN(Cc1ccccc1)CCC2 [Example 33, 5-Benzyl-3-fluoro-2-(pyridin-2-yl)-5,6,7,8-tetrahydro-4H-pyrazolo[1,5-a][1,4]diazepine] | 7.20 | 41
Cn1nc(CN2CCn3nc(-c4ncccc4F)cc3C2)c2ccccc21 [Example 167] | 7.77 | 69
COc1ccccc1-c1cc2n(n1)CCN(Cc1ccc(C)nc1N)C2 [Example 16] | 6.86 | 51
Cc1ccc(CN2CCn3nc(-c4ncccc4C)cc3C2)cc1 [Example 53] | 8.00 | 99
Cc1cccnc1-c1cc2n(n1)CCN(Cc1cc3n(n1)CCCC3)C2 [Example 91] | 7.31 | 44
Cc1ncc(CN2CCn3nc(-c4ncccc4C)cc3C2)c(C)n1 [Example 190, 5-[(2,4-Dimethylpyrimidin-5-yl)methyl]-2-(3-methylpyridin-2-yl)-4,5,6,7-tetrahydropyrazolo[1,5-a]pyrazine] | 7.22 | 61
Cc1ccc(CN2CCn3nc(-c4ncccc4C)cc3C2)cn1 [Example 67] | 7.57 | 64
Cc1ccncc1CN1CCn2nc(-c3ncccc3C)cc2C1 [Example 111] | 6.80 | 22
Cc1ncc(CN2CCn3nc(-c4ncccc4C)cc3C2)cn1 [Example 170] | 6.82 | 48
Cn1cc(CN2CCn3nc(-c4ncccc4F)cc3C2)c2ccccc21 [Example 166] | 7.36 | 85
Cc1cccnc1-c1cc2n(n1)CCN(Cc1cnc3c(c1)CCCC3)C2 [Example 186] | 7.29 | 44
Cc1c(-c2ncccc2F)nn2c1CN(Cc1ccc(C(F)(F)F)cc1)CC2 [Example 83] | 7.08 | 72
Cc1ncc(CN2CCn3nc(-c4ncccc4C)cc3C2)c(N)n1 [Example 30, 2-Methyl-5-{[2-(3-methylpyridin-2-yl)-6,7-dihydropyrazolo[1,5-a]pyrazin-5(4H)-yl]methyl}pyrimidine-4-amine] | 7.10 | 53
Cc1cccnc1-c1nn2c(c1C)CN(Cc1ccc(C(F)(F)F)cn1)CC2 [Example 118] | 6.97 | 59
Cc1c(-c2ncccc2F)nn2c1CN(Cc1ccc(C(F)(F)F)nc1)CC2 [Example 127] | 7.25 | 89
Cc1cccnc1-c1cc2n(n1)CCN(Cc1ccc(C(F)(F)F)cc1F)C2 [Example 47] | 7.15 | 65

Compound | pEC50 | Emax [%]
Fc1ccc(CN2CCn3nc(-c4ncccc4F)cc3C2)cn1 [Example 169] | 7.29 | 80
Cc1cccnc1-c1cc2n(n1)CCN(Cc1cnc(C)c(Cl)c1)C2 [Example 189, 5-[(5-Chloro-6-methylpyridin-3-yl)methyl]-2-(3-methylpyridin-2-yl)-4,5,6,7-tetrahydropyrazolo[1,5-a]pyrazine] | 7.24 | 49
Cc1ccc(CN2CCn3nc(-c4ncccc4C)c(Cl)c3C2)nc1 [Example 106, 3-Chloro-2-(3-methylpyridin-2-yl)-5-[(5-methylpyridin-2-yl)methyl]-4,5,6,7-tetrahydropyrazolo[1,5-a]pyrazine] | 7.18 | 94
c1ccc(-c2cc3n(n2)CCN(Cc2n[nH]c4ccccc24)C3)nc1 [Example 3] | 7.72 | 60
Cc1cccnc1-c1cc2n(n1)CCN(Cc1ccc(CF)cc1)C2 [Example 49] | 7.72 | 84
Cc1ncc(CN2CCn3nc(-c4ccccn4)c(C)c3C2)c(N)n1 [Example 142] | 7.17 | 82
Cc1ccc(CN2CCn3nc(-c4ncccc4F)c(C)c3C2)cc1 [Example 82] | 7.34 | 91
Cc1cccc(CN2CCn3nc(-c4ncccc4C(F)(F)F)cc3C2)n1 [Example 152] | 6.97 | 74
Cc1cccnc1-c1cc2n(n1)CCN(Cc1cnc(C(C)C)nc1)C2 [Example 203] | 7.43 | 54
Cc1cnc(CN2CCn3nc(-c4ncccc4C)cc3C2)cn1 [Example 154] | 7.00 | 57
Cc1cccnc1-c1cc2n(n1)CCN(Cc1cnn3ccccc13)C2 [Example 89] | 7.33 | 39
Cc1cccnc1-c1cc2n(n1)CCN(Cc1cccc(C#N)c1)C2 [Example 62] | 7.60 | 89
Cc1ccc(CN2CCn3nc(-c4ccccn4)cc3C2)c(N)n1 [Example 19] | 7.27 | 63
N#Cc1cc(CN2CCn3nc(-c4ccccn4)cc3C2)ccc1F [Example 36] | 7.40 | 77
Fc1ccc(CN2CCn3nc(-c4ncccc4F)cc3C2)nc1 [Example 160] | 6.95 | 53
Cc1nc(CN2CCn3nc(-c4ncccc4C)cc3C2)cs1 [Example 139] | 9.22 | 56
Fc1c(-c2ccccn2)nn2c1CN(Cc1ccccc1)CC2 [Example 78] | 7.96 | 51
Cc1cccnc1-c1cc2n(n1)CCN(Cc1nc(C)n3ccccc13)C2 [Example 85] | 7.11 | 78
Cc1cccnc1-c1cc2n(n1)CCN(Cc1ccc(OC(F)(F)F)c(F)c1)C2 [Example 177, 5-[3-Fluoro-4-(trifluoromethoxy)benzyl]-2-(3-methylpyridin-2-yl)-4,5,6,7-tetrahydropyrazolo[1,5-a]pyrazine monohydrochloride] | 6.85 | 39

Compound | pEC50 | Emax [%]
Fc1ccc2[nH]nc(CN3CCn4nc(-c5ccccn5)cc4C3)c2c1 [Example 4] | 7.77 | 60
Cc1cccc(CN2CCn3nc(-c4ncccc4F)c(C)c3C2)n1 [Example 126] | 7.96 | 91
Cc1cccnc1-c1cc2n(n1)CCN(Cc1ccc(OC(F)(F)F)cc1C#N)C2 [Example 52] | 7.47 | 58
c1ccc(-c2cc3n(n2)CCN(Cc2cccc4[nH]cnc24)C3)nc1 [Example 14] | 7.08 | 46
Cc1cccnc1-c1cc2n(n1)CCN(Cc1cn(C)c3ccccc13)C2 [Example 148] | 7.33 | 71
Cc1cccnc1-c1cc2n(n1)CCN(Cc1ccc(CF)cn1)C2 [Example 123] | 7.49 | 65
Cc1ccc(CN2CCn3nc(-c4ncccc4F)cc3C2)cn1 [Example 50] | 7.21 | 41
Fc1cccc2[nH]nc(CN3CCn4nc(-c5ccccn5)cc4C3)c12 [Example 102] | 6.94 | 48
Cc1cccnc1-c1cc2n(n1)CCN(Cc1ccc(OC(F)(F)F)cc1F)C2 [Example 66] | 6.85 | 52
Cc1cccnc1-c1cc2n(n1)CCN(Cc1cnc(C(F)(F)F)nc1N)C2 [Example 84, 5-{[2-(3-Methylpyridin-2-yl)-6,7-dihydropyrazolo[1,5-a]pyrazin-5(4H)-yl]methyl}-2-(trifluoromethyl)pyrimidine-4-amine] | 6.93 | 68
Cc1cccnc1-c1cc2n(n1)CCN(Cc1cc3ccccc3n1C)C2 [Example 146] | 7.05 | 48
Cc1ncc(CN2CCn3nc(-c4ccccn4)c(F)c3C2)c(N)n1 [Example 141] | 7.06 | 56
Cc1cccnc1-c1cc2n(n1)CCN(Cc1ccc3cn[nH]c3c1)C2 [Example 34] | 8.28 | 73
CC(C)c1ncc(CN2CCn3nc(-c4ncccc4F)cc3C2)cn1 [Example 204] | 7.36 | 50
Cc1cccnc1-c1cc2n(n1)CCN(Cc1cn3c(n1)CCCC3)C2 [Example 87] | 7.21 | 47
Cc1cccnc1-c1cc2n(n1)CCN(Cc1nn(C)c3ccccc13)C2 [Example 158] | 7.19 | 74
Cc1cccnc1-c1cc2n(n1)CCN(Cc1ccc(CF)nc1)C2 [Example 122] | 7.30 | 47
Cc1cccnc1-c1cc2n(n1)CCN(Cc1ccc(C(F)(F)F)cc1)C2 [Example 55] | 7.17 | 92
